System: TRIM24-MET-i cells
Description: The number of unique and shared differentially expressed genes between each comparison are shown in parentheses. A linear regression line is depicted along with Pearson’s correlation coefficient (r) and its associated p-value. […] Common negatively enriched genesets between all three comparisons are in bold. c, Heatmaps showing expression of Hallmark_Myc_Target_v1/2 genes for indicated cells and treatment comparisons (TRIM-MET cells were treated in vitro, TFG-MET cells in vivo). Select leading edge genes from GSEA are labeled.

C[C@@H](Oc1cc(-c2cnn(C3CCNCC3)c2)cnc1N)c1c(Cl)ccc(F)c1Cl [Crizotinib]
ES GOMF_CATALYTIC_ACTIVITY_ACTING_ON_A_TRNA: -0.6982 | ES GOMF_GTPASE_ACTIVITY: -0.4838 | ES GOMF_GUANYL_NUCLEOTIDE_BINDING: -0.4485 | ES GOMF_HYDROLASE_ACTIVITY_ACTING_ON_ACID_ANHYDRIDES: -0.386 | ES GOMF_RRNA_BINDING: -0.7423 | NES GOMF_CATALYTIC_ACTIVITY_ACTING_ON_A_TRNA: -2.2819 | NES GOMF_GTPASE_ACTIVITY: -1.922 | NES GOMF_GUANYL_NUCLEOTIDE_BINDING: -1.812 | NES GOMF_HYDROLASE_ACTIVITY_ACTING_ON_ACID_ANHYDRIDES: -1.664 | NES GOMF_RRNA_BINDING: -2.231 | ES GARY_CD5_TARGETS_DN (GSEA v. DMSO): -0.652 | ES HALLMARK_ADIPOGENESIS (GSEA v. DMSO): -0.2603 | ES HALLMARK_ALLOGRAFT_REJECTION (GSEA v. DMSO): -0.4058 | ES HALLMARK_ANDROGEN_RESPONSE (GSEA v. DMSO): -0.4828 | ES HALLMARK_ANGIOGENESIS (GSEA v. DMSO): -0.5624 | ES HALLMARK_APICAL_JUNCTION (GSEA v. DMSO): -0.293 | ES HALLMARK_APICAL_SURFACE (GSEA v. DMSO): 0.4986 | ES HALLMARK_APOPTOSIS (GSEA v. DMSO): -0.4398 | ES HALLMARK_CHOLESTEROL_HOMEOSTASIS (GSEA v. DMSO): 0.2795 | ES HALLMARK_COAGULATION (GSEA v. DMSO): -0.4513 | ES HALLMARK_COMPLEMENT (GSEA v. DMSO): -0.5126 | ES HALLMARK_DNA_REPAIR (GSEA v. DMSO): -0.2541 | ES HALLMARK_E2F_TARGETS (GSEA v. DMSO): -0.2746 | ES HALLMARK_EPITHELIAL_MESENCHYMAL_TRANSITION (GSEA v. DMSO): -0.3755 | ES HALLMARK_ESTROGEN_RESPONSE_EARLY (GSEA v. DMSO): -0.4277 | ES HALLMARK_ESTROGEN_RESPONSE_LATE (GSEA v. DMSO): -0.3421 | ES HALLMARK_G2M_CHECKPOINT (GSEA v. DMSO): -0.3012 | ES HALLMARK_GLYCOLYSIS (GSEA v. DMSO): -0.404 | ES HALLMARK_HEDGEHOG_SIGNALING (GSEA v. DMSO): -0.4466 | ES HALLMARK_HYPOXIA (GSEA v. DMSO): -0.3351 | ES HALLMARK_IL2_STAT5_SIGNALING (GSEA v. DMSO): -0.5189 | ES HALLMARK_IL6_JAK_STAT3_SIGNALING (GSEA v. DMSO): -0.4268 | ES HALLMARK_INFLAMMATORY_RESPONSE (GSEA v. DMSO): -0.4921 | ES HALLMARK_INTERFERON_ALPHA_RESPONSE (GSEA v. DMSO): 0.2583 | ES HALLMARK_INTERFERON_GAMMA_RESPONSE (GSEA v. DMSO): -0.3093 | ES HALLMARK_KRAS_SIGNALING_DN (GSEA v. DMSO): 0.3288 | ES HALLMARK_KRAS_SIGNALING_UP (GSEA v. DMSO): -0.4922 | ES HALLMARK_MITOTIC_SPINDLE (GSEA v. DMSO): -0.2568 | ES HALLMARK_MTORC1_SIGNALING (GSEA v. DMSO): -0.5236 | ES HALLMARK_MYC_TARGETS_V1 (GSEA v. DMSO): -0.6267 | ES HALLMARK_MYC_TARGETS_V2 (GSEA v. DMSO): -0.805 | ES HALLMARK_MYOGENESIS (GSEA v. DMSO): -0.2282 | ES HALLMARK_NOTCH_SIGNALING (GSEA v. DMSO): -0.4408 | ES HALLMARK_OXIDATIVE_PHOSPHORYLATION (GSEA v. DMSO): -0.4296 | ES HALLMARK_P53_PATHWAY (GSEA v. DMSO): -0.2784 | ES HALLMARK_PANCREAS_BETA_CELLS (GSEA v. DMSO): 0.2429 | ES HALLMARK_PEROXISOME (GSEA v. DMSO): 0.273 | ES HALLMARK_PI3K_AKT_MTOR_SIGNALING (GSEA v. DMSO): -0.3625 | ES HALLMARK_PROTEIN_SECRETION (GSEA v. DMSO): -0.4081 | ES HALLMARK_TGF_BETA_SIGNALING (GSEA v. DMSO): -0.5775 | ES HALLMARK_TNFA_SIGNALING_VIA_NFKB (GSEA v. DMSO): -0.5914 | ES HALLMARK_UNFOLDED_PROTEIN_RESPONSE (GSEA v. DMSO): -0.6237 | ES HALLMARK_UV_RESPONSE_DN (GSEA v. DMSO): -0.3089 | ES HALLMARK_UV_RESPONSE_UP (GSEA v. DMSO): -0.4076 | ES HALLMARK_WNT_BETA_CATENIN_SIGNALING (GSEA v. DMSO): -0.3432 | ES KRIGE_RESPONSE_TO_TOSEDOSTAT_6HR_DN (GSEA v. DMSO): -0.6237 | ES KRIGE_RESPONSE_TO_TOSEDOSTAT_24HR_DN (GSEA v. DMSO): -0.6444 | ES LEE_BMP2_TARGETS_DN (GSEA v. DMSO): -0.6669 | ES WEI_MYCN_TARGETS_WITH_E_BOX (GSEA v. DMSO): -0.6994 | NES GARY_CD5_TARGETS_DN (GSEA v. DMSO): -2.697 | NES HALLMARK_ADIPOGENESIS (GSEA v. DMSO): -0.9905 | NES HALLMARK_ALLOGRAFT_REJECTION (GSEA v. DMSO): -1.519 | NES HALLMARK_ANDROGEN_RESPONSE (GSEA v. DMSO): -1.666 | NES HALLMARK_ANGIOGENESIS (GSEA v. DMSO): -1.626 | NES HALLMARK_APICAL_JUNCTION (GSEA v. DMSO): -1.114 | NES HALLMARK_APICAL_SURFACE (GSEA v. DMSO): 1.572 | NES HALLMARK_APOPTOSIS (GSEA v. DMSO): -1.646 | NES HALLMARK_CHOLESTEROL_HOMEOSTASIS (GSEA v. DMSO): 0.993 | NES HALLMARK_COAGULATION (GSEA v. DMSO): -1.59 | NES HALLMARK_COMPLEMENT (GSEA v. DMSO): -1.9374 | NES HALLMARK_DNA_REPAIR (GSEA v. DMSO): -0.9367 | NES HALLMARK_E2F_TARGETS (GSEA v. DMSO): -1.051 | NES HALLMARK_EPITHELIAL_MESENCHYMAL_TRANSITION (GSEA v. DMSO): -1.427 | NES HALLMARK_ESTROGEN_RESPONSE_EARLY (GSEA v. DMSO): -1.626 | NES HALLMARK_ESTROGEN_RESPONSE_LATE (GSEA v. DMSO): -1.298 | NES HALLMARK_G2M_CHECKPOINT (GSEA v. DMSO): -1.145 | NES HALLMARK_GLYCOLYSIS (GSEA v. DMSO): -1.5363 | NES HALLMARK_HEDGEHOG_SIGNALING (GSEA v. DMSO): -1.301 | NES HALLMARK_HYPOXIA (GSEA v. DMSO): -1.274 | NES HALLMARK_IL2_STAT5_SIGNALING (GSEA v. DMSO): -1.973 | NES HALLMARK_IL6_JAK_STAT3_SIGNALING (GSEA v. DMSO): -1.432 | NES HALLMARK_INFLAMMATORY_RESPONSE (GSEA v. DMSO): -1.856 | NES HALLMARK_INTERFERON_ALPHA_RESPONSE (GSEA v. DMSO): 0.9765 | NES HALLMARK_INTERFERON_GAMMA_RESPONSE (GSEA v. DMSO): -1.175 | NES HALLMARK_KRAS_SIGNALING_DN (GSEA v. DMSO): 1.322 | NES HALLMARK_KRAS_SIGNALING_UP (GSEA v. DMSO): -1.8648 | NES HALLMARK_MITOTIC_SPINDLE (GSEA v. DMSO): -0.9855 | NES HALLMARK_MTORC1_SIGNALING (GSEA v. DMSO): -2.004 | NES HALLMARK_MYC_TARGETS_V1 (GSEA v. DMSO): -2.398 | NES HALLMARK_MYC_TARGETS_V2 (GSEA v. DMSO): -2.6016 | NES HALLMARK_MYOGENESIS (GSEA v. DMSO): -0.867 | NES HALLMARK_NOTCH_SIGNALING (GSEA v. DMSO): -1.2742 | NES HALLMARK_OXIDATIVE_PHOSPHORYLATION (GSEA v. DMSO): -1.635 | NES HALLMARK_P53_PATHWAY (GSEA v. DMSO): -1.06 | NES HALLMARK_PANCREAS_BETA_CELLS (GSEA v. DMSO): 0.7197 | NES HALLMARK_PEROXISOME (GSEA v. DMSO): 1.047 | NES HALLMARK_PI3K_AKT_MTOR_SIGNALING (GSEA v. DMSO): -1.259 | NES HALLMARK_PROTEIN_SECRETION (GSEA v. DMSO): -1.414 | NES HALLMARK_TGF_BETA_SIGNALING (GSEA v. DMSO): -1.842 | NES HALLMARK_TNFA_SIGNALING_VIA_NFKB (GSEA v. DMSO): -2.258 | NES HALLMARK_UNFOLDED_PROTEIN_RESPONSE (GSEA v. DMSO): -2.204 | NES HALLMARK_UV_RESPONSE_DN (GSEA v. DMSO): -1.132 | NES HALLMARK_UV_RESPONSE_UP (GSEA v. DMSO): -1.522 | NES HALLMARK_WNT_BETA_CATENIN_SIGNALING (GSEA v. DMSO): -1.0353 | NES KRIGE_RESPONSE_TO_TOSEDOSTAT_6HR_DN (GSEA v. DMSO): -2.692 | NES KRIGE_RESPONSE_TO_TOSEDOSTAT_24HR_DN (GSEA v. DMSO): -2.791 | NES LEE_BMP2_TARGETS_DN (GSEA v. DMSO): -2.874 | NES WEI_MYCN_TARGETS_WITH_E_BOX (GSEA v. DMSO): -3.001 | ES GOBP_NCRNA_PROCESSING (GSEA, v. DMSO): -0.7604 | ES GOBP_RIBONUCLEOPROTEIN_COMPLEX_BIOGENESIS (GSEA, v. DMSO): -0.7216 | ES GOBP_RIBOSOME_BIOGENESIS (GSEA, v. DMSO): -0.7916

From article PMC11157767 (Molecular Cancer, 2024)
